Source: US10336697B2, “Spiro[cyclobutane-1,3′-indolin]-2′-one derivatives as bromodomain inhibitors” (Orion Corporation, priority 2015, dated 2019)

Target: Bet BRD4 full length bromo-domain protein (Homo sapiens, UniProt O60885)
Test: Bet bromodomain TR-FRET assay (displacement of acetyl histone peptide)
Assay type: binding
Conditions: Bet BRD4 full length bromodomain protein, 300 nM acetyl histone peptide substrate, read-out: IC50

CCN(CC)CCOc1cc(NS(=O)(=O)c2ccccc2OC)cc2c1NC(=O)C21CCC1 [Compound 165, N-(7′-(2-(diethylamino)ethoxy)-2′-oxospiro[cyclobutane-1,3′-indolin]-5′-yl)-2-methoxybenzenesulfonamide] and COc1ccccc1S(=O)(=O)Nc1cc(OCCCN(C)C)c2c(c1)C1(CCC1)C(=O)N2 [Compound 164, N-(7′-(3-(dimethylamino)propoxy)-2′-oxospiro[cyclobutane-1,3′-indolin]-5′-yl)-2-methoxybenzenesulfonamide] cannot be ordered by IC50: < 600 nM for the first, < 600 nM for the second.

First: O=C(Nc1cc(Br)c2c(c1)C1(CCC1)C(=O)N2)c1cccnc1N1CCOCC1 [Compound-222, N-(7′-bromo-2′-oxospiro[cyclobutane-1,3′-indolin]-5′-yl)-2-morpholinonicotinamide]
Second: O=C(Nc1ccccn1)c1cc(NS(=O)(=O)c2ccc(F)cc2F)cc2c1NC(=O)C21CCC1 [Compound 49, 5′-(2,4-Difluorophenylsulfonamido)-2′-oxo-N-(pyridin-2-yl)spiro[cyclobutane-1,3′-indoline]-7′-carboxamide]
The IC50 of the first is higher: > 1000 nM for the first, 600 to 1000 nM for the second. The second is the more potent here.

Compared with CN1CCC(NC(=O)c2cc(NS(=O)(=O)N3CCCCC3)cc3c2NC(=O)C32CCC2)CC1 [Compound 85, N-(1-methylpiperidin-4-yl)-2′-oxo-5′-(piperidine-1-sulfon amido)spiro[cyclobutane-1,3′-indoline]-7′-carboxamide], CN1CCC(NC(=O)c2cc(NS(=O)(=O)c3cc(F)ccc3F)cc3c2NC(=O)C32CCC2)CC1 [Compound 86, 5′-(2,5-Difluorophenylsulfonamido)-N-(1-methylpiperidin-4-yl)-2′-oxospiro[cyclobutane-1,3′-indoline]-7′-carboxamide] is lower in IC50: > 1000 nM for the first, < 600 nM for the second. The second is the more potent here.

O=C1Nc2c(OCCn3cccn3)cc(NS(=O)(=O)c3ccc(Cl)cc3F)cc2C12CCC2 [Compound 161, N-(7′-(2-(1H-pyrazol-1-yl)ethoxy)-2′-oxospiro[cyclobutane-1,3′-indolin]-5′-yl)-4-chloro-2-fluorobenzenesulfonamide] and Cn1cncc1COc1cc(NS(=O)(=O)c2ccc(Cl)cc2F)cc2c1NC(=O)C21CCC1 [Compound 160, 4-Chloro-2-fluoro-N-(7′-((1-methyl-1H-imidazol-5-yl)methoxy)-2′-oxospiro[cyclobutane-1,3′-indolin]-5′-yl)benzenesulfonamide] cannot be ordered by IC50: < 600 nM for the first, < 600 nM for the second.

COc1ccccc1S(=O)(=O)Nc1cc(OC2CCS(=O)(=O)CC2)c2c(c1)C1(CCC1)C(=O)N2 [Compound 143, N-(7′-((1,1-dioxidotetrahydro-2H-thiopyran-4-yl)oxy)-2′-oxospiro[cyclobutane-1,3′-indolin]-5′-yl)-2-methoxybenzenesulfonamide] and COc1ccccc1S(=O)(=O)Nc1cc(OC2CCN(CCO)CC2)c2c(c1)C1(CCC1)C(=O)N2 [Compound-209, N-(7′-((1-(2-hydroxyethyl)piperidin-4-yl)oxy)-2′-oxospiro[cyclobutane-1,3′-indolin]-5′-yl)-2-methoxybenzenesulfonamide] cannot be ordered by IC50: < 600 nM for the first, < 600 nM for the second.

O=C1CCC(c2cc(NS(=O)(=O)c3ccc(F)cc3F)cc3c2NC(=O)C32CCC2)CN1 (stereo not drawn) [Compound 105, 2,4-Difluoro-N-(2′-oxo-7′-(6-oxopiperidin-3-yl)spiro [cyclobutane-1,3′-indolin]-5′-yl)benzenesulfonamide] and O=C1CCC(Nc2cc(NS(=O)(=O)c3ccc(F)cc3F)cc3c2NC(=O)C32CCC2)CN1 (stereo not drawn) [Compound 33, 2,4-Difluoro-N-(2′-oxo-7′-((6-oxopiperidin-3-yl)amino)spiro[cyclobutane-1,3′-indolin]-5′-yl)benzenesulfonamide] cannot be ordered by IC50: < 600 nM for the first, < 600 nM for the second.

COc1ccccc1S(=O)(=O)Nc1cc(OCc2ccc(F)cn2)c2c(c1)C1(CCC1)C(=O)N2 [Compound 148, N-(7′-((5-fluoropyridin-2-yl)methoxy)-2′-oxospiro[cyclobutane-1,3′-indolin]-5′-yl)-2-methoxybenzenesulfonamide] and COc1ccccc1S(=O)(=O)Nc1cc(Oc2cc[nH]c(=O)c2)c2c(c1)C1(CCC1)C(=O)N2 [compound 213, 2-Methoxy-N-(2′-oxo-7′-((2-oxo-1,2-dihydropyridin-4-yl)oxy)spiro[cyclobutane-1,3′-indolin]-5′-yl)benzenesulfonamide] cannot be ordered by IC50: < 600 nM for the first, < 600 nM for the second.

CCCN1CCC(Nc2cc(NS(=O)(=O)c3ccc(F)cc3F)cc3c2NC(=O)C32CCC2)CC1 [Compound 29, 2,4-Difluoro-N-(2′-oxo-7′-((1-propylpiperidin-4-yl)amino)spiro[cyclobutane-1,3′-indolin]-5′-yl)benzenesulfonamide] and CN1CCCC(Nc2cc(NS(=O)(=O)c3ccc(F)cc3F)cc3c2NC(=O)C32CCC2)C1 (stereo not drawn) [Compound 16, 2,4-difluoro-N-(7′-((1-methylpiperidin-3-yl)amino)-2′-oxospiro [cyclobutane-1,3′-indolin]-5′-yl)benzenesulfonamide] cannot be ordered by IC50: < 600 nM for the first, < 600 nM for the second.

COc1ccccc1S(=O)(=O)Nc1cc(OC(C)c2cccnc2)c2c(c1)C1(CCC1)C(=O)N2 (single isomer, unassigned) [Compound 152, 2-methoxy-N-(2′-oxo-7′-(1-(pyridin-3-yl)ethoxy)spiro[cyclobutane-1,3′-indolin]-5′-yl)benzenesulfonamide] and COc1ccccc1S(=O)(=O)Nc1cc(Cc2cccnc2)c2c(c1)C1(CCC1)C(=O)N2 [Compound 87, 2-Methoxy-N-(2′-oxo-7′-(pyridin-3-ylmethyl)spiro[cyclobutane-1,3′-indolin]-5′-yl)benzenesulfonamide] cannot be ordered by IC50: < 600 nM for the first, < 600 nM for the second.

First: COc1cccc(F)c1S(=O)(=O)Nc1cc(OC2CCN(C)CC2)c2c(c1)C1(CCC1)C(=O)N2 [Compound-185, 2-Fluoro-6-methoxy-N-(7′-((1-methylpiperidin-4-yl)oxy)-2′-oxospiro[cyclobutane-1,3′-indolin]-5′-yl)benzenesulfonamide]
Second: COc1ccccc1S(=O)(=O)Nc1cc(OC2CCN(C)CC2)c2c(c1Cl)C1(CCC1)C(=O)N2 [Compound-215, N-(4′-chloro-7′-((1-methylpiperidin-4-yl)oxy)-2′-oxospiro-[cyclobutane-1,3′-indolin]-5′-yl)-2-methoxybenzenesulfonamide]
The IC50 of the first is lower: < 600 nM for the first, 600 to 1000 nM for the second. The first is the more potent here.

COc1ccccc1S(=O)(=O)Nc1cc(C(C)c2ccccc2)c2c(c1)C1(CCC1)C(=O)N2 (stereo not drawn) [Compound 113, 2-Methoxy-N-(2′-oxo-7′-(1-phenylethyl)spiro [cyclobutane-1,3′-indolin]-5′-yl)benzenesulfonamide] and COc1ccccc1S(=O)(=O)Nc1cc(C(C)c2nccs2)c2c(c1)C1(CCC1)C(=O)N2 (stereo not drawn) [Compound 177, 2-Methoxy-N-(2′-oxo-7′-(1-(thiazol-2-yl)ethyl)spiro[cyclobutane-1,3′-indolin]-5′-yl)benzenesulfonamide] cannot be ordered by IC50: < 600 nM for the first, < 600 nM for the second.

First: CC1(C)CNCCC1Nc1cc(NS(=O)(=O)c2ccc(F)cc2F)cc2c1NC(=O)C21CCC1 (stereo not drawn) [Compound 103, N-(7′-((3,3-dimethylpiperidin-4-yl)amino)-2′-oxospiro[cyclobutane-1,3′-indolin]-5′-yl)-2,4-difluorobenzenesulfonamide]
Second: CC1(C)CN(Cc2ccccc2)CCC1Nc1cc(NS(=O)(=O)c2ccc(F)cc2F)cc2c1NC(=O)C21CCC1 (stereo not drawn) [Compound 36, N-(7′-((1-benzyl-3,3-dimethylpiperidin-4-yl)amino)-2′-oxospiro[cyclobutane-1,3′-indolin]-5′-yl)-2,4-difluorobenzenesulfonamide]
The IC50 of the first is lower: < 600 nM for the first, 600 to 1000 nM for the second. The first is the more potent here.

O=C1Nc2c(OC3CCCNC3)cc(NS(=O)(=O)c3ccc(Cl)cc3F)cc2C12CCC2 (stereo not drawn) [compound 200, 4-Chloro-2-fluoro-N-(2′-oxo-7′-(piperidin-3-yloxy)spiro[cyclobutane-1,3′-indolin]-5′-yl)benzenesulfonamide] and O=C1Nc2c(Oc3cc[nH]c(=O)c3)cc(NS(=O)(=O)c3ccc(Cl)cc3F)cc2C12CCC2 [Compound-212, 4-Chloro-2-fluoro-N-(2′-oxo-7′-((2-oxo-1,2-dihydropyridin-4-yl)oxy)spiro[cyclobutane-1,3′-indolin]-5′-yl)benzenesulfonamide] cannot be ordered by IC50: < 600 nM for the first, < 600 nM for the second.

COc1cc(-c2cc(NS(=O)(=O)c3ccc(F)cc3F)cc3c2NC(=O)C32CCC2)ccn1 [Compound 2, 2,4-Difluoro-N-(7′-(2-methoxypyridin-4-yl)-2′-oxospiro [cyclobutane-1,3′-indolin]-5′-yl)benzenesulfonamide] and O=C1Nc2c(-c3ccc(O)nc3)cc(NS(=O)(=O)c3ccc(F)cc3F)cc2C12CCC2 [Compound 99, 2,4-Difluoro-N-(7′-(6-hydroxypyridin-3-yl)-2′-oxospiro [cyclobutane-1,3′-indolin]-5′-yl)benzenesulfonamide] fall in the same range of IC50: 600 to 1000 nM for the first, 600 to 1000 nM for the second.

First: CCN1CCC(NC(=O)c2cc(NS(=O)(=O)c3ccc(F)cc3F)cc3c2NC(=O)C32CCC2)CC1 [Compound 54, 5′-(2,4-Difluorophenylsulfonamido)-N-(1-ethylpiperidin-4-yl)-2′-oxospiro[cyclobutane-1,3′-indoline]-7′-carboxamide]
Second: CN1CCC(N(C)C(=O)c2cc(NS(=O)(=O)c3ccc(F)cc3F)cc3c2NC(=O)C32CCC2)CC1 [Compound 53, 5′-(2,4-Difluorophenylsulfonamido)-N-methyl-N-(1-methylpiperidin-4-yl)-2′-oxospiro[cyclobutane-1,3′-indoline]-7′-carboxamide]
The IC50 of the first is lower: < 600 nM for the first, > 1000 nM for the second.

First: COc1ccc(S(=O)(=O)Nc2cc(Cc3ccccc3)c3c(c2)C2(CCC2)C(=O)N3)c(F)c1 [Compound 93, N-(7′-benzyl-2′-oxospiro[cyclobutane-1,3′-indolin]-5′-yl)-2-fluoro-4-methoxybenzenesulfonamide]
Second: CC(=O)Nc1cc(NS(=O)(=O)c2ccc(F)cc2F)cc2c1NC(=O)C21CCC1 [Compound 63, N-(5′-((2,4-difluorophenyl)sulfonamido)-2′-oxospiro[cyclobutane-1,3′-indolin]-7′-yl)acetamide]
The IC50 of the first is lower: < 600 nM for the first, 600 to 1000 nM for the second. The first is the more potent here.

O=C(Nc1cc(NS(=O)(=O)c2ccc(F)cc2F)cc2c1NC(=O)C21CCC1)c1ccncc1 [Compound 45, N-(5′-(2,4-Difluorophenylsulfonamido)-2′-oxospiro[cyclobutane-1,3′-indolin]-7′-yl)isonicotinamide] was tested, and the IC50 was > 1000 nM.
